We go through 5 compounds from ChEMBL document CHEMBL1201862, “PubChem BioAssay data set” (2004).

Each structure is given as a SMILES string. Active and inactive are the calls of the source.

Usually IC50 stands for the concentration that inhibits the measured activity by half. By Ki is commonly meant the equilibrium dissociation constant of an inhibitor or competing ligand from its target. Broadly, the AC50 is the concentration at which the activity in the assay is half-maximal.

One test concerns HEK293. Briefly: cells. The settings on record: Homo sapiens.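 Note: cells exposed to compound for 14 hours overnight before viability readout.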
Another test concerns the target Interleukin-8 (Homo sapiens, UniProt P10145). Briefly: SAR analysis of tumor necrosis factor alpha (TNF-alpha) induced IL-8 secretion in MCF-7/NOD1 cells. [Related pubchem assays (depositor defined):AID1575, AID2250, AID2260]. Format: functional, cell-based.
A further test addresses Tumor necrosis factor (Homo sapiens, UniProt P01375). Briefly: TNFa-triggered NF-kB activation inhibitors, SAR follow-up, cell-based, revised (AID 2337). The class given is functional.
The target in test [1] is Dual specificity protein phosphatase 3 (Homo sapiens, UniProt P51452). Briefly: VHR1 inhibitor Ki determination, SAR follow-up, biochemical, colorimetric (AID 2004).
Dual specificity protein phosphatase 3, sequence (P51452 whole entry): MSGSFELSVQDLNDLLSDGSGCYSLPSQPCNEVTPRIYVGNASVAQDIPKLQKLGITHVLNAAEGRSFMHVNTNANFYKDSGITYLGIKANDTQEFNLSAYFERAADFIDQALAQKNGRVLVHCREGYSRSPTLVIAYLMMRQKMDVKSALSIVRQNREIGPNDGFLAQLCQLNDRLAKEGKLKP
The target in test [2] is Scavenger receptor class B member 1 (Mus musculus, UniProt Q61009). Briefly: inhibitors of SR-BI mediated HDL lipid uptake, dose response, ldlA[mSR-BI] cells, fluorescence, cherry pick (AID 493194).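 Note: cellular uptake of fluorescent DiI-labeled HDL measured as cell fluorescence.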 Format: functional, cell-based.
The target in another test is Estrogen receptor beta (Homo sapiens, UniProt Q92731). Briefly: ERβ–SRC-3 coactivator interaction inhibitors, confirmation, orthogonal assay, biochemical, ELISA, streptavidin-HRP readout (AID 1060). Background: ELISA stands for enzyme-linked immunosorbent assay.
In test [3] the target is T1, Voltage-gated N-type calcium channel alpha-1B subunit/Amyloid beta A4 precursor protein-binding family A member 1 (Homo sapiens, UniProt Q00975+Q02410). The class given is protein assay.
T1 sequence (Q00975 whole entry): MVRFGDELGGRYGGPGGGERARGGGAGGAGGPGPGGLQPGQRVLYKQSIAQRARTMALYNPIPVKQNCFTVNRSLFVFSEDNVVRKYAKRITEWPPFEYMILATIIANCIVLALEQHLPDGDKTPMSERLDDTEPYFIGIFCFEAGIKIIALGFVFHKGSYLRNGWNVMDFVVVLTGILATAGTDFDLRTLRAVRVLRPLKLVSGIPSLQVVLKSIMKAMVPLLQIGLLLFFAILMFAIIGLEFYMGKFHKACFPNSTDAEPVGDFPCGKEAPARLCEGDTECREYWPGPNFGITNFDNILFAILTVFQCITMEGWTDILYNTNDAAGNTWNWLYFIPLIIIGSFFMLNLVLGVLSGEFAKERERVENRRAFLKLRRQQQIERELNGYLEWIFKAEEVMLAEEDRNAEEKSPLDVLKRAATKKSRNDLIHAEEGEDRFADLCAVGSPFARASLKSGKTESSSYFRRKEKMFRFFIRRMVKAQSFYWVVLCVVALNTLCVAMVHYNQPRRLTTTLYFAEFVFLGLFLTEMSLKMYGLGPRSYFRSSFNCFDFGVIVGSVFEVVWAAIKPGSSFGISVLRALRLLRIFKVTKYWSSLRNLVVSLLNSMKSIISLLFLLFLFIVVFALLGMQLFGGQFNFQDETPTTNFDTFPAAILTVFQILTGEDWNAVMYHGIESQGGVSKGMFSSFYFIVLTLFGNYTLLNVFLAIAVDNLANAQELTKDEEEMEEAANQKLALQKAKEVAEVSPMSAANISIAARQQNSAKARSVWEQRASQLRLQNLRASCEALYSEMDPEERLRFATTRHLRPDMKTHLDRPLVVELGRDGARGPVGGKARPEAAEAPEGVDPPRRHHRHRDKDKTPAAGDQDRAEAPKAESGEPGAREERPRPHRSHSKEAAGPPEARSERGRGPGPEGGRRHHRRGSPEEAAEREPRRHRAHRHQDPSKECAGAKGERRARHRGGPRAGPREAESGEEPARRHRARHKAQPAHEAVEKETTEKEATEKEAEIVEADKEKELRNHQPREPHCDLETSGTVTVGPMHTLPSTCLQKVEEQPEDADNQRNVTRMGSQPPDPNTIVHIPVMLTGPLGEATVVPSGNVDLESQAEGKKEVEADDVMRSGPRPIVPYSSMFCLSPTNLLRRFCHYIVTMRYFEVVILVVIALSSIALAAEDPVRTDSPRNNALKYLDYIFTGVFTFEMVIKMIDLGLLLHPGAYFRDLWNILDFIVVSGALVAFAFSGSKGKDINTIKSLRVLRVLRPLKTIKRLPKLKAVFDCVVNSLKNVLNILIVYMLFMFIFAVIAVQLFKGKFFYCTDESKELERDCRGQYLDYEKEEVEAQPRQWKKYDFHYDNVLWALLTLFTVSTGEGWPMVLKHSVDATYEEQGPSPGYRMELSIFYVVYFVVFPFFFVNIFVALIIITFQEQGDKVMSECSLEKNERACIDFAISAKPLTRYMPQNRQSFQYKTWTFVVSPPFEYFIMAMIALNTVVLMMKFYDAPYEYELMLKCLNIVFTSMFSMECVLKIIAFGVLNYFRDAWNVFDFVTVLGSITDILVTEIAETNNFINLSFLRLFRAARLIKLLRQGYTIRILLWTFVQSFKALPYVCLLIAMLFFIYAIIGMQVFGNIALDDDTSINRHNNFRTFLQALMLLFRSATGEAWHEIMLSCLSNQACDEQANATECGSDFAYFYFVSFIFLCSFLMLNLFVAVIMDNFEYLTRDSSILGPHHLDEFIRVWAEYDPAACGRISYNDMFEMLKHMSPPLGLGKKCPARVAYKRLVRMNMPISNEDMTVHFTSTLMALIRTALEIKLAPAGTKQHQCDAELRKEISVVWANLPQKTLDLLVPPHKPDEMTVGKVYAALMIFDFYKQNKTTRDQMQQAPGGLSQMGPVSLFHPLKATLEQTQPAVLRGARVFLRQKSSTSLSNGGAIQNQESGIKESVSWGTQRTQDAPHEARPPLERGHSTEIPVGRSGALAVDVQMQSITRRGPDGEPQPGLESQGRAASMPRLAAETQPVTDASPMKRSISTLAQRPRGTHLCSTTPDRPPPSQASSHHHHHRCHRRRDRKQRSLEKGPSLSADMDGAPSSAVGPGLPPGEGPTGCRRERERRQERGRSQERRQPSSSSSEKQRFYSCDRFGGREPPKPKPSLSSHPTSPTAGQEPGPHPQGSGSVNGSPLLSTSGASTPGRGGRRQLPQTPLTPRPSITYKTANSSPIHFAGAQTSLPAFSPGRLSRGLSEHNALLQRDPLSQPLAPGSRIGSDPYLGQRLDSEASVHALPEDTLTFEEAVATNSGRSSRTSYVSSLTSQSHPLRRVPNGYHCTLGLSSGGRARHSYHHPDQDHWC
T1 sequence (Q02410 whole entry): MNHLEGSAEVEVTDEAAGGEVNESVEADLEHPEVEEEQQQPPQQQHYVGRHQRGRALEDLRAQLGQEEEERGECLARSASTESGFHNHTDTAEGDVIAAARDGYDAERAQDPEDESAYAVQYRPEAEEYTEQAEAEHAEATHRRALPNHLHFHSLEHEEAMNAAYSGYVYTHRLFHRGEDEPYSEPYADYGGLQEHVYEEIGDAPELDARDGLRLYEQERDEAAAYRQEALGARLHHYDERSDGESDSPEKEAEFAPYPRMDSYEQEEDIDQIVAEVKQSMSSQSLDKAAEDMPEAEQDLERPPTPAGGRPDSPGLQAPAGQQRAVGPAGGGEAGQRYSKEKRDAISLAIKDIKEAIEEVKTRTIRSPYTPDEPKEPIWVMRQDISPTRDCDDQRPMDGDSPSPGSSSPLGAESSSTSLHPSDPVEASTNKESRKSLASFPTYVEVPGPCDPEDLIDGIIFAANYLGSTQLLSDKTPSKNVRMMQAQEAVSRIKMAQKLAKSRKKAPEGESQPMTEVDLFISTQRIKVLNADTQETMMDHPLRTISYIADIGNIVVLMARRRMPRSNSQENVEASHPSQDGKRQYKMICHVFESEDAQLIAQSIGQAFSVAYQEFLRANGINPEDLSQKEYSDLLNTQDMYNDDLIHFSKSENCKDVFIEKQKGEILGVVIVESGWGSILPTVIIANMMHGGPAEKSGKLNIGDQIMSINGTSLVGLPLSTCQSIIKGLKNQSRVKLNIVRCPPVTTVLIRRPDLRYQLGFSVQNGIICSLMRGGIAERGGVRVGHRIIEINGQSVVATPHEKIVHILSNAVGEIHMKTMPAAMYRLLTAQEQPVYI
The target in test [4] is T1, Voltage-gated N-type calcium channel alpha-1B subunit/Amyloid beta A4 precursor protein-binding family A member 1. The class given is protein assay. The source holds these as a separate data set.
Another test concerns the target NS3 (Hepatitis C virus, UniProt A3EZJ3). Briefly: PubChem AID 2173. Also on record: species or system Hepacivirus hominis.
Test [5] deals with T1, Voltage-gated N-type calcium channel alpha-1B subunit/Amyloid beta A4 precursor protein-binding family A member 1. Briefly: disruptors of Mint-PDZ/N-type channel peptide interaction – biochemical, HTRF, SAR follow-up (AID 2489). Format: functional. On the technique in general: Time-resolved FRET reads energy transfer from a long-lived donor to a nearby acceptor.
Test [6] addresses T2, Tyrosine-protein phosphatase non-receptor type 7 (Homo sapiens, UniProt P35236).
T2 sequence (P35236 whole entry): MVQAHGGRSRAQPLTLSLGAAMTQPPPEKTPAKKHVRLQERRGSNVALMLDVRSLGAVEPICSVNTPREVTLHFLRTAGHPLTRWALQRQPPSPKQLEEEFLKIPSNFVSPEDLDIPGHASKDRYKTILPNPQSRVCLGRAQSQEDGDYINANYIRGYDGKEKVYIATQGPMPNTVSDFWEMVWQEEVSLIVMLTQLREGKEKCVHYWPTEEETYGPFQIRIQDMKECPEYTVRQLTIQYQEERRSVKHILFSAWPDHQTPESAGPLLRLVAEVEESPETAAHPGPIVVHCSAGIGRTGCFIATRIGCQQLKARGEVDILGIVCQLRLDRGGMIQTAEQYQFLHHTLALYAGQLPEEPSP
Briefly: redox-dependent HePTP inhibition, mechanism study, biochemical, fluorescence (AID 2068). The class given is functional.

In test [7] the target is Acyl-homoserine lactone acylase PvdQ (Pseudomonas aeruginosa (strain LESB58), UniProt Q9I194). Briefly: P. aeruginosa PvdQ acylase inhibitors, dose response, biochemical, fluorescence, plate reader and imaging, cherry-picks (AID 493231).
Acyl-homoserine lactone acylase PvdQ, sequence (Q9I194 24-193 limits assumed): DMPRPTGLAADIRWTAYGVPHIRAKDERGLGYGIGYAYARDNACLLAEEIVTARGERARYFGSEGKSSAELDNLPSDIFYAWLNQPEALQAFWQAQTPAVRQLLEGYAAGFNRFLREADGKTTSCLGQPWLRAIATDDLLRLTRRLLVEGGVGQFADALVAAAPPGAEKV
Acyl-homoserine lactone acylase PvdQ, sequence (Q9I194 217-762 limits assumed): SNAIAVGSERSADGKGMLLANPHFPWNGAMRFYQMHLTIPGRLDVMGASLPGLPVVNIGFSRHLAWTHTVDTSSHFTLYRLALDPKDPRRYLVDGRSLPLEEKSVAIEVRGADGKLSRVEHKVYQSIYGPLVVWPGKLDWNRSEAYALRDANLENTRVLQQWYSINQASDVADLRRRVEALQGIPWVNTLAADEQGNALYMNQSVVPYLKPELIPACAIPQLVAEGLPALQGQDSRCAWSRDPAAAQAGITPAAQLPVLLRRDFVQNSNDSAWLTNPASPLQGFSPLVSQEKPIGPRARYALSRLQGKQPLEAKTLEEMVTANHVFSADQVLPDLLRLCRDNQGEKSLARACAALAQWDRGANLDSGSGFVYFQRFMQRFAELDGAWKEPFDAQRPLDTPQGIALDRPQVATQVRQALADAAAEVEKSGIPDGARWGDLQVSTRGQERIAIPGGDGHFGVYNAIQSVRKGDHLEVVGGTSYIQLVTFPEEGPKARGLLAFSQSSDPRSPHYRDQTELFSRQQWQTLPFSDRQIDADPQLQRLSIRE

NS3, sequence (A3EZJ3 whole entry): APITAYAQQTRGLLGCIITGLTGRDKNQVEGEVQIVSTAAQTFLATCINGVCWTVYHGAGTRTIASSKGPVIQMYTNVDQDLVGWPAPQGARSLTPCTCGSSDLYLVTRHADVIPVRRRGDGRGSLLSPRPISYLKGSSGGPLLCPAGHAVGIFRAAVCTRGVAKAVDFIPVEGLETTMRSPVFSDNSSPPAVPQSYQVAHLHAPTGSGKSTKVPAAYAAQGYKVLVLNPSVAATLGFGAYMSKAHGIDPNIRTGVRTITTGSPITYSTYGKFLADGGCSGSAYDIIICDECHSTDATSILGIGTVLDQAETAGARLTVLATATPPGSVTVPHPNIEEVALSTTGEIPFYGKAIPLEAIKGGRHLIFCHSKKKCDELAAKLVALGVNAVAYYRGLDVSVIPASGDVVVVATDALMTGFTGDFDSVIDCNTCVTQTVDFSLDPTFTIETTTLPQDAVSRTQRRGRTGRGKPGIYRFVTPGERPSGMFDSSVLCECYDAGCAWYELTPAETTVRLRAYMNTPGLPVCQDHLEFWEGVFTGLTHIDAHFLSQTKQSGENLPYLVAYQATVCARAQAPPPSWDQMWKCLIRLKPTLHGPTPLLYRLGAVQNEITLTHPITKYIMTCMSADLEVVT
Tumor necrosis factor, sequence (P01375 whole entry): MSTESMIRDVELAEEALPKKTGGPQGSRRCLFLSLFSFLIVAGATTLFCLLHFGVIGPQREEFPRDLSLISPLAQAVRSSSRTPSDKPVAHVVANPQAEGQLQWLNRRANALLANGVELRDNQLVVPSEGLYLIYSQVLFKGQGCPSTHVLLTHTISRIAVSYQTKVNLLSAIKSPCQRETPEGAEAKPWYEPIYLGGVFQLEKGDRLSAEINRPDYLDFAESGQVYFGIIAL
Interleukin-8, sequence (P10145 whole entry): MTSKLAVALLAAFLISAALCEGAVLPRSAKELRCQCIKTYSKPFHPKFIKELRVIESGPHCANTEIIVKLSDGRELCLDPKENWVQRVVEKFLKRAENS

On to `Nc1nc2ccccc2n1S(=O)(=O)c1ccccc1`, for which the IC50 was > 20 µM (inactive) in the test with HEK293, > 5 µM (inactive) at Interleukin-8 and > 20 µM (inactive) at Tumor necrosis factor.

As to `O=C1NC(=S)N(c2ccc(Cl)cc2)C(=O)/C1=C/c1ccc(-c2ccccc2C(=O)O)o1`, the Ki in [1] was 36.6 µM (inactive).

Take `COc1cc(NC(=O)c2cc(-c3ccccc3Cl)on2)cc(OC)c1OC`: the AC50 in test [2] is 32 µM (active).

Take `O=C(NC1CCCC1)c1ccc2nc(-c3ccco3)c(-c3ccco3)nc2c1`: the IC50 at Estrogen receptor beta was 478 nM (not active); in [3], 2.28 µM (active); in test [4], 26 µM (active); at NS3 it was 5.49 µM (active); in [5], > 56.8 µM (inactive); in test [6] it was 2.94 µM (active).

`N#CC(c1cccc(Cl)c1)c1ncc(C(F)(F)F)cc1Cl` (configuration not stated): in test [7], the AC50 is 2.74 µM (active).
